Values after ≈ are worked out from the molar mass of the structure shown. Values belong to the molecule of their own block, whether it stands above or below them.
Tests used:
Type in all cases: physicochemical
[1] = Approximate solubility by incremental addition of solvent; conditions: for solubility: thermodynamic from solid
Procedure: Solubility: Approximate solubilities were determined by incremental addition of solvent to about 10 mg the compound. If the substance was not dissolved by addition of a total of at least 10 ml solvent, the solubility is indicated as <1 mg/ml. Due to the experimental error inherent in this method, the solubility values are intended to be regarded as rough estimates and are to be used solely for the design of crystallization experiments.
Approximate solubilities were determined for amorphous Compound (I) at room temperature. These values were obtained by addition of small aliquots of solvent to small amounts of solid to achieve dissolution by stirring or agitation for a short period of time. […] Ratios for solvent mixtures correspond to volume ratios.
Initially the tests were carried out with the amorphous form Compound (I) and later on, after stable crystalline Form D (Example 7 below) was discovered, some of the tests were repeated with the crystalline form. […] Antisolvents are water, heptane, and TBME. […] Based on available data and further experiments diisopropylether, cyclohexane and methylcyclohexane can also be used as antisolvents.

Aqueous solubility = conditions: water, thermodynamic from solid; for solubility at 24 h: equilibration time 24 hours
[2] = pH dependent solubility tests in 0.1 M HCl, citrate buffer and USP phosphate buffers; conditions: thermodynamic from solid
Procedure: pH dependent solubility tests were conducted in 0.1 M HCl, in citrate buffer, and in USP phosphate buffers with nominal pH values of 6.8 and 7.4. Solubility tests at pH values below 5 failed because all compounds dissolved during the equilibration phase.

[3] = Dynamic vapor sorption (DVS), with PXRD and TG-FTIR of the post-DVS sample; conditions: for Solid form of the sample recovered post-DVS (PXRD): PXRD after DVS; for Water content of the post-DVS sample by TG-FTIR: sample recovered at end of DVS test; for Total water content change during the DVS cycles: wet sample used
Procedure: Dynamic vapor sorption: DVS measurements were performed with an SPS11-100n “Sorptions Prifsystem” from ProUmid (formerly “Projekt Messtechnik”), August-Nagel-Str. 23, 89079 Ulm (Germany). About 5-20 mg of sample was put into an aluminum sample pan. Humidity change rates of 5% per hour were used. The applied measurement program is visualized in the figure (blue trace). The presentations showing the effective water content are corrected.
The sample was placed on an aluminum or platinum holder on top of a microbalance and allowed to equilibrate at 50% RH before starting the pre-defined humidity programs. The measurement program is visualized in the figures of the report.
Classification of Hygroscopicity: The hygroscopicity was classified based on the mass gain at 85% RH relative to the initial mass as follows: deliquescent (sufficient water adsorbed to form a liquid), very hygroscopic (mass increase of ≥15%), hygroscopic (mass increase <15% but ≥2%), slightly hygroscopic (mass increase <2% but ≥0.2%), or non-hygroscopic (mass increase <0.2%).

[4] = Thermogravimetry coupled with FT-IR (TG-FTIR), decomposition
Procedure: TG-FTIR: Thermogravimetric measurements were carried out with a Netzsch Thermo-Microbalance TG 209 coupled to a Bruker FTIR Spectrometer Vector 22 (sample pans with a pinhole, N2 atmosphere, heating rate 10 K/min).

[5] = Physical form stability on drying (PXRD)
Procedure: PowderX-ray diffraction: Powder X-ray diffraction was carried out with a Stoe Stadi P diffractometer equipped with a Mythen1K detector operating with Cu—Kα1 radiation. The measurements with this instrument were performed in transmission at a tube voltage of 40 kV and 40 mA tube power. A curved Ge monochromator allows testing with Cu—Kα1 radiation. The following parameters were set: 0.02° 20 step size, 12 s step time, 1.5-50.5° 20 scanning range, and 1° 20 detector step (detector mode in step scan). For a typical sample preparation about 10 mg of sample was placed between two acetate foils and mounted into a Stoe transmission sample holder. The sample was rotated during the measurement. All sample preparation and measurement was done in an ambient air atmosphere.
The first crystalline form of Compound (I) was designated as Form A and was obtained from a suspension equilibration experiment of the amorphous form in an isopropanol—water mixture. Form A was characterized by PXRD, TG-FTIR, H-NMR and DVS.
The PXRD pattern of Form A is depicted in FIG. 1. It should be noted that this sample was examined by PXRD before drying and that the undried sample is highly crystalline in nature. […] A TG-FTIR of the crystal Form A sample without much drying indicated a large mass loss of 36.6% that is attributable to water and isopropanol. Given the large mass loss it was concluded that drying was insufficient, and therefore the sample was further dried under vacuum at ambient temperature for about 23 hours and a new TG-FTIR was recorded.
As with Form A, Form B was examined by PXRD before drying was indicated to be highly crystalline in nature. […] A TG-FTIR was carried out for Form B without further drying and the thermogram indicated a large mass loss of 36.5% that is attributable to water; however no alcohol was detected. Given the large mass loss it was concluded that drying was insufficient, and the sample was subjected to further vacuum drying at ambient temperature for ten minutes and a new TG-FTIR was recorded. The new TG-FTIR thermogram indicated a water content of about 4.6%.

[6] = Solubility tests in potential process solvent mixtures; conditions: thermodynamic from solid

Structure (SMILES): CN1CCN(C[C@H]2COc3cc4ncnc(Nc5cccc(Br)c5F)c4cc3O2)CC1 [Amorphous form, (S)—N-(3-bromo-2-fluorophenyl)-7-((4-methylpiperazin-1-yl)methyl)-7,8-dihydro-[1,4]dioxino[2,3-g]quinazolin-4-amine]
- solubility ([1]; 2-propanol, organic solvent or mixture, Propanol, 2-, room temperature): > 100000 µg/mL
- Approximate solubility ([1]; Acetonitrile, room temperature): S > 130 mg/ml
- Approximate solubility ([1]; Ethanol/n-heptane (1/3), room temperature): S > 130 mg/ml
- Approximate solubility ([1]; Isopropyl acetate, room temperature): S~100 mg/ml
- solubility ([1]; MEK, organic solvent or mixture, room temperature): > 100000 µg/mL
- solubility ([1]; TBME, organic solvent or mixture, room temperature): ~2000 µg/mL (≈ 4.1 mM)
- solubility ([1]; THF, organic solvent or mixture, room temperature): > 130000 µg/mL
- solubility ([1]; THF/n-heptane (1/1, v/v), organic solvent or mixture, THF/n-heptane (1/1), room temperature): ~2000 µg/mL (≈ 4.1 mM)
- Approximate solubility ([1]; Water, room temperature): S < 1 mg/ml
- Solubility in the most common organic solvents (in words) ([1]; acetic acid, ketones, alcohols, esters, dichloromethane and mixtures thereof): highly soluble
- solubility ([1]; acetic acid/water (1/3, v/v), aqueous with cosolvent or surfactant or cyclodextrin, Acetic acid/water (1/3), room temperature): > 130000 µg/mL
- solubility ([1]; acetone, organic solvent or mixture, room temperature): > 100000 µg/mL
- solubility ([1]; acetone/water (1/1, v/v), aqueous with cosolvent or surfactant or cyclodextrin, Acetone/water (1/1), room temperature): > 120000 µg/mL
- solubility ([1]; acetonitrile/water (1/1, v/v), aqueous with cosolvent or surfactant or cyclodextrin, Acetonitrile/water (1/1), room temperature): > 110000 µg/mL
- solubility ([1]; anisole, organic solvent or mixture, room temperature): > 160000 µg/mL
- solubility ([1]; dichloromethane, organic solvent or mixture, room temperature): > 100000 µg/mL
- solubility ([1]; ethanol, organic solvent or mixture, room temperature): > 100000 µg/mL
- solubility ([1]; ethanol/n-heptane (1/1, v/v), organic solvent or mixture, Ethanol/n-heptane (1/1), room temperature): > 130000 µg/mL
- solubility ([1]; ethanol/water (1/1, v/v), aqueous with cosolvent or surfactant or cyclodextrin, Ethanol/water (1/1), room temperature): > 100000 µg/mL
- solubility ([1]; ethyl acetate, organic solvent or mixture, room temperature): > 100000 µg/mL
- solubility ([1]; methanol, organic solvent or mixture, room temperature): > 100000 µg/mL
- solubility ([1]; methanol/TBME (1/2, v/v), organic solvent or mixture, Methanol/TBME (1/2), room temperature): > 140000 µg/mL
- solubility ([1]; n-heptane, organic solvent or mixture, room temperature): < 1000 µg/mL
- solubility at 24 h (Aqueous solubility; pH 9.27): 49 µg/mL (≈ 0.1 mM)
- solubility at 1 h (Aqueous solubility; equilibration time one hour, pH 9.16): 46 µg/mL (≈ 0.0942 mM)
- solubility ([2]; USP phosphate buffer (nominal pH 6.8), aqueous buffer, effective pH 6.95): 316 µg/mL (≈ 0.647 mM)
- solubility ([2]; USP phosphate buffer (nominal pH 7.4), pH 7.5, aqueous buffer, effective pH 7.50): 94 µg/mL (≈ 0.192 mM)
- solubility ([2]; citrate buffer, aqueous buffer, effective pH 6.25): 9630 µg/mL (≈ 19.7 mM)
- Hygroscopicity classification ([3]; DVS, classes based on mass gain at 85% RH relative to initial mass): hygroscopic (hygroscopic (mass increase <15% but ≥2%))
- Solid form of the sample recovered post-DVS (PXRD) [3]: has not changed
- Water lost during DVS ([3]; approximately same amount as during TG-FTIR): roughly 1.5%
- Water content at the end of the DVS test [3]: about 6.4%
- Water content at the high r.h. end during the DVS cycles ([3]; high r.h. end): about 15%
- Decomposition temperature [4]: above 200 °C

Structure (SMILES): CN1CCN(C[C@H]2COc3cc4ncnc(Nc5cccc(Br)c5F)c4cc3O2)CC1 [Form A, (S)—N-(3-bromo-2-fluorophenyl)-7-((4-methylpiperazin-1-yl)methyl)-7,8-dihydro-[1,4]dioxino[2,3-g]quinazolin-4-amine]
- Solid form of the sample recovered post-DVS (PXRD) [3]: Form A was retained
- Water uptake above 50% r.h. in DVS [3]: just small amounts of water
- Water lost below 50% r.h. during the DVS cycles ([3]; below 50% r.h.): about 8%
- Water content change over the whole range of relative humidity ([3]; from 0% to 95% r.h., roughly three waters per Compound (I)): ~10%
- Physical form stability [5]: poor physical form stability
- PXRD of the dried sample ([5]; dried under vacuum at ambient temperature for about 23 hours): essentially amorphous material
- Effect of drying on crystallinity ([5]; drying of highly crystalline, solvent-rich samples): significant loss of crystallinity

Structure (SMILES): CN1CCN(C[C@H]2COc3cc4ncnc(Nc5cccc(Br)c5F)c4cc3O2)CC1 [Form C, (S)—N-(3-bromo-2-fluorophenyl)-7-((4-methylpiperazin-1-yl)methyl)-7,8-dihydro-[1,4]dioxino[2,3-g]quinazolin-4-amine]
- Solid form of the sample recovered post-DVS (PXRD) [3]: crystallinity was lost almost completely
- Water uptake above 50% r.h. in DVS [3]: just small amounts of water
- Water content at the end of the DVS test [3]: about 5.9%
- Water content of the post-DVS sample by TG-FTIR [3]: about 5.9%
- Total water content change during the DVS cycles [3]: about 14%
- Physical form stability [5]: poor physical form stability

Other lines, results leading:

- Solid form of the sample recovered post-DVS (PXRD) [3]: crystallinity was lost
- Water uptake above 50% r.h. in DVS [3]: just small amounts of water
- Water content of the post-DVS sample by TG-FTIR [3]: about 6.4%
- Total water content change during the DVS cycles [3]: about 13%
- Physical form stability [5]: poor physical form stability
- Solid form after further drying ([5]; further drying beyond ten minutes vacuum): completely amorphous material
- PXRD of the dried sample ([5]; vacuum drying at ambient temperature for ten minutes): dramatic loss of crystallinity
Structure (SMILES): CN1CCN(C[C@H]2COc3cc4ncnc(Nc5cccc(Br)c5F)c4cc3O2)CC1 [Form B, (S)—N-(3-bromo-2-fluorophenyl)-7-((4-methylpiperazin-1-yl)methyl)-7,8-dihydro-[1,4]dioxino[2,3-g]quinazolin-4-amine]

- solubility ([1]; 1-methoxy-2-propanol, organic solvent or mixture, Propanol, 1-methoxy-2-, room temperature): > 200000 µg/mL
- solubility ([1]; 2-propanol/heptane (1/1, v/v), organic solvent or mixture, Propanol, 2-/heptane 1/1, room temperature): > 20000 µg/mL
- solubility ([1]; acetone/heptane (1/3, v/v), organic solvent or mixture, Acetone/heptane 1/3, room temperature): ~7000 µg/mL (≈ 14.3 mM)
- solubility ([1]; ethanol/n-heptane (1/3, v/v), organic solvent or mixture, Ethanol/n-heptane (1/3), room temperature): > 107000 µg/mL
- solubility ([1]; ethyl acetate/n-heptane (1/3, v/v), organic solvent or mixture, Ethyl acetate/n-heptane (1/3), room temperature): ~3000 µg/mL (≈ 6.14 mM)
- Solubility compared with the amorphous form (in words) ([1]; in acetonitrile and ethyl acetate): substantially lower
- solubility ([1]; isobutyl alcohol, organic solvent or mixture, Isobutylalcohol, room temperature): > 136000 µg/mL
- solubility ([1]; isopropyl acetate, organic solvent or mixture, room temperature): 90000 to 180000 µg/mL (≈ 184 to 369 mM)
- solubility ([1]; water, room temperature): < 1000 µg/mL
- solubility ([6]; 25 °C, aqueous with cosolvent or surfactant or cyclodextrin, Isopropanol - water 1:1): 20300 µg/mL (≈ 41.6 mM)
- solubility ([6]; 25 °C, aqueous with cosolvent or surfactant or cyclodextrin, Isopropanol - water 1:3): 1200 µg/mL (≈ 2.46 mM)
- solubility ([6]; 25 °C, organic solvent or mixture, Ethyl acetate - heptane 1:1): 23100 µg/mL (≈ 47.3 mM)
- solubility ([6]; ethyl acetate - heptane 1:3, 25 °C, organic solvent or mixture): 6300 µg/mL (≈ 12.9 mM)
- solubility at 24 h (Aqueous solubility; pH 8.49): 66 µg/mL (≈ 0.135 mM)
- solubility ([2]; USP phosphate buffer (nominal pH 6.8), aqueous buffer, effective pH 6.97): 210 µg/mL (≈ 0.43 mM)
- solubility ([2]; USP phosphate buffer (nominal pH 7.4), aqueous buffer, effective pH 7.47): 84 µg/mL (≈ 0.172 mM)
- solubility ([2]; citrate buffer, aqueous buffer, effective pH 5.28): 13100 µg/mL (≈ 26.8 mM)
- solubility ([2]; citrate buffer, aqueous buffer, effective pH 6.11): 6600 µg/mL (≈ 13.5 mM)
- Water uptake in DVS ([3]; at 95% relative humidity): up to 0.8%
- Water release in DVS ([3]; humidity scanned back to 0% r.h.): lost all its water
Structure (SMILES): CN1CCN(C[C@H]2COc3cc4ncnc(Nc5cccc(Br)c5F)c4cc3O2)CC1 [Form D, (S)—N-(3-bromo-2-fluorophenyl)-7-((4-methylpiperazin-1-yl)methyl)-7,8-dihydro-[1,4]dioxino[2,3-g]quinazolin-4-amine]

Reference: US12545686B2, “Polymorphic forms of (s)-n-(3-bromo-2-fluorophenyl)-7-((4-methylpiperazin-1-yl)methyl)-7,8-dihydro-[1,4]dioxino[2,3-g]quinazolin-4-amine as EGFR inhibitors” (ERASCA, INC., priority 2021, dated 2026)
